Results: patent EP4592286A1, “MACROCYCLIC NITROGEN-CONTAINING CROWN ETHER COMPOUND AND USE THEREOF AS PROTEIN KINASE INHIBITOR” (Artivila Biopharma, priority 2022, dated 2024)

Molecular target: CDK9 (Homo sapiens, UniProt P50750)
Assay: experiment of inhibiting kinase activity (Caliper mobility shift assay), CDK9
Type: biochemical
How it was run: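 Replicate wells; top concentration 10 µM, 3-fold steps, 10 points (or 10 nM/100 nM single doses). Enzyme preincubated 10 min RT with compound; ATP/substrate start; stop solution; Caliper conversion read. IC50 by Hill-slope curve fit.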

Chain of CDK9 (P50750 whole entry): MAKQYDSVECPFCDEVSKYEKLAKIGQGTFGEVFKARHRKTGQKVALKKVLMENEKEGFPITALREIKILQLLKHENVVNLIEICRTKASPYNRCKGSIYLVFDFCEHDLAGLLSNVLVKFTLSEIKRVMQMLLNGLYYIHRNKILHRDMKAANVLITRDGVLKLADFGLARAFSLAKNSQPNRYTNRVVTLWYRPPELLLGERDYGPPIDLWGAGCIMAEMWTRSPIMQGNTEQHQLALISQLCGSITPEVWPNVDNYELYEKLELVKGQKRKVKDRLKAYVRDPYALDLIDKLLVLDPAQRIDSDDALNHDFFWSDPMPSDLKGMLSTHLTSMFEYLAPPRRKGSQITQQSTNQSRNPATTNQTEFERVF
Chain of CDK9 (O60563 whole entry partner): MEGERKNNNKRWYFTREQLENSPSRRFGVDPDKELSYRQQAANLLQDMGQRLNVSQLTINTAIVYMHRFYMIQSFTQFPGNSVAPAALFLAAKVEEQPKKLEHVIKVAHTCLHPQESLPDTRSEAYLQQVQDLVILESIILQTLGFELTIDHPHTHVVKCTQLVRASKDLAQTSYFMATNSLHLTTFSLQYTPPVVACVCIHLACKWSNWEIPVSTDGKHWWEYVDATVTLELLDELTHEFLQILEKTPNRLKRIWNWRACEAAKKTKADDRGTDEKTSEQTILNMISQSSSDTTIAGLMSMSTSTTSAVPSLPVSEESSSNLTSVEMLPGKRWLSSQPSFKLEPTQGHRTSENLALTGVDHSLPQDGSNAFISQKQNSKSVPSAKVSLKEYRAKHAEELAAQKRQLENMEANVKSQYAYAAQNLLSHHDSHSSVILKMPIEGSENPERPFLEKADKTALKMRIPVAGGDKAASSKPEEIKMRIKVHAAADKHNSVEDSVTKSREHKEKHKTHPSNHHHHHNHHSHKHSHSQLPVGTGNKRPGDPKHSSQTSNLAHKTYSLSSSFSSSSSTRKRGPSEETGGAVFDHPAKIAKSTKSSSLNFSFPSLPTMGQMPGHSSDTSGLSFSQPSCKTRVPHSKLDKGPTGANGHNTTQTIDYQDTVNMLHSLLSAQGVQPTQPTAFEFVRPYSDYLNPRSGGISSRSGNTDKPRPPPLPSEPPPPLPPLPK

`CN1CCOCCOc2cc(Nc3ncc(F)c(-c4ccc(C(=O)NCC#N)cc4)n3)ccc2OCC1` [Example 16, N-(cyanomethyl)-4-(5-fluoro-2-((7-methyl-2,3,6,7,8,9-hexahydro-5H-benzo[b][1,4,7]trioxa[10]azacyclododecan-13-yl)amino)pyrimidin-4-yl)benzamide] showed an inhibition at 0.01 µM (at 10 nM, read-out: inhibition rate CDK9) of 40 to 79%, an inhibition at 0.1 µM (at 100 nM, read-out: inhibition rate CDK9) greater than 80% and an IC50 (kinase activity assay, Table 3) of less than 50 nM.
